Reference: US12447153B2, “HER2 mutation inhibitors” (Array BioPharma Inc., priority 2021, dated 2025)

Legend:
[1] = target: ErbB2 with Exon 20 YVMA insertion (HER2-YVMA) (Homo sapiens (Human), UniProt P04626, INS775YVMA); experiment: Cellular Phosphorylation Assay, Assay 4 (constitutive ErbB2 phosphorylation, NIH 3T3 cells); type: cell-based
[2] = target: EGFR (Homo sapiens (Human), UniProt P00533); experiment: ErbB Enzyme Assay (HTRF KinEASE-TK), Assay 3; type: biochemical
[3] = target: MDR1 (P-gp) (Homo sapiens (Human), UniProt P08183); experiment: in vitro; settings: pig, LLC-PK1
[4] = target: EGFR wild type (EGFR WT) (Homo sapiens (Human), UniProt P00533); experiment: Cellular Phosphorylation Assay, Assay 5 (EGF-stimulated EGFR phosphorylation, NIH 3T3 cells); type: cell-based
[5] = target: ErbB2 WT (Homo sapiens (Human), UniProt P04626); experiment: ErbB Enzyme Assay (HTRF KinEASE-TK), Assay 2; type: biochemical
[6] = target: BCRP (Homo sapiens (Human), UniProt Q9UNQ0); experiment: BCRP MDCKII efflux assay (Assay 7); type: in vitro ADME; settings: dog; efflux ratio Papp(B-A)/Papp(A-B), BCRP MDCKII cells; read-out: Assay 7 Pe Ratio
Description: Assay conditions included with and without the BCRP-specific inhibitor, KO143, at a concentration of 0.3 μM to ascertain the contribution of BCRP to the efflux value of the test compound.
Final organic concentration in the assay was 1%.

[7] = EGF-stimulated EGFR WT phosphorylation
[8] = cellular ErbB2 YVMA phosphorylation
[9] = cellular EGFR WT phosphorylation, EGF-stimulated

Sequence of ErbB2 with Exon 20 YVMA insertion (HER2-YVMA) (P04626 other isoform, or with tags, fused parts or gaps ins YVMA behind 775): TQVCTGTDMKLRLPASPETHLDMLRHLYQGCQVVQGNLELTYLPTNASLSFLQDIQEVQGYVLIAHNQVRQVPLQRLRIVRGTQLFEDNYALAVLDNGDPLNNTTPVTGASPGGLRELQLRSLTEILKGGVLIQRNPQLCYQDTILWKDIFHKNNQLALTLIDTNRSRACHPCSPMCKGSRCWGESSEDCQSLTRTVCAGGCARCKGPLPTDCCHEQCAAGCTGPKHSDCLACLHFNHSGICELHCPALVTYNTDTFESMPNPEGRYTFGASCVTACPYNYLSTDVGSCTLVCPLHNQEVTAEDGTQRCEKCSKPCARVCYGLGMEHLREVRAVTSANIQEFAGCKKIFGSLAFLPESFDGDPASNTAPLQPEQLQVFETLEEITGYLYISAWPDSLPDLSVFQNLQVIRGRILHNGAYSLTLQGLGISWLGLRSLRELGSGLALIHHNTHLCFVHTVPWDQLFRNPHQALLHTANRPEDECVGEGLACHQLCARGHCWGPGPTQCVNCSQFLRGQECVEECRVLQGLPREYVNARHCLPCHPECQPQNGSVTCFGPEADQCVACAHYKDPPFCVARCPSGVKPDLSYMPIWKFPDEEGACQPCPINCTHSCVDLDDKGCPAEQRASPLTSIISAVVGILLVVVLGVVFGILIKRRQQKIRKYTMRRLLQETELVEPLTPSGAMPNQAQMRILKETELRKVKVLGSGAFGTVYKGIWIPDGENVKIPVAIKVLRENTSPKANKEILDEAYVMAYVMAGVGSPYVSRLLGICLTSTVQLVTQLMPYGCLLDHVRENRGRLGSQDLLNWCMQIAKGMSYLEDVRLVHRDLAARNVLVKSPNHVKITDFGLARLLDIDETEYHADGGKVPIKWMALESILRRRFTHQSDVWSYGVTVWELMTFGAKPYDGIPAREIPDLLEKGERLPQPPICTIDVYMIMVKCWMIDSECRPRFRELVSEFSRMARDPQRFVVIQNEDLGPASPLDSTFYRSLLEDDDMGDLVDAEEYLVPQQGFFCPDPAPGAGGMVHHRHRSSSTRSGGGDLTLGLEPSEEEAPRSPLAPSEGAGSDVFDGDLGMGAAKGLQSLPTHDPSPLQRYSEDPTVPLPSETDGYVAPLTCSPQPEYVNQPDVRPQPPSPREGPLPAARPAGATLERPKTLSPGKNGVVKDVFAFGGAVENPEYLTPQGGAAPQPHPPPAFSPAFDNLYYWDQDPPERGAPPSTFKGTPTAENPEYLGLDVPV
Sequence of BCRP (Q9UNQ0 whole entry): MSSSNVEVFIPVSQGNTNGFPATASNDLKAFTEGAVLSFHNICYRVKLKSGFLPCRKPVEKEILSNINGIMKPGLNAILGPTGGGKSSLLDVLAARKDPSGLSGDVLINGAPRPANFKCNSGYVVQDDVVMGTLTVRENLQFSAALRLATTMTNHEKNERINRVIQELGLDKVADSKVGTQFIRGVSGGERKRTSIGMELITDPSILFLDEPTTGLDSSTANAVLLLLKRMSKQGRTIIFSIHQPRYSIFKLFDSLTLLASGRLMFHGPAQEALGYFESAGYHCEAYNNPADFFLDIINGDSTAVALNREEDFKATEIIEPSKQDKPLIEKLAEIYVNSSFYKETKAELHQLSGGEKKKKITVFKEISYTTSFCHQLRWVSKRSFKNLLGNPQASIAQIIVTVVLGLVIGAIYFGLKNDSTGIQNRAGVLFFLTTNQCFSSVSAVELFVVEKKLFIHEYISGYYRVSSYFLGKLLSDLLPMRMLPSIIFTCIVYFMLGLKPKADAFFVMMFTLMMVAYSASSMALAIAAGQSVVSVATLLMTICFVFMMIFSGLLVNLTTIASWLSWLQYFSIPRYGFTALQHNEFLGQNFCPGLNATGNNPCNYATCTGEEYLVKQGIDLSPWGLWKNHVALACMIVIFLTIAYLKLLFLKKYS
Sequence of ErbB2 WT (P04626 23-1255): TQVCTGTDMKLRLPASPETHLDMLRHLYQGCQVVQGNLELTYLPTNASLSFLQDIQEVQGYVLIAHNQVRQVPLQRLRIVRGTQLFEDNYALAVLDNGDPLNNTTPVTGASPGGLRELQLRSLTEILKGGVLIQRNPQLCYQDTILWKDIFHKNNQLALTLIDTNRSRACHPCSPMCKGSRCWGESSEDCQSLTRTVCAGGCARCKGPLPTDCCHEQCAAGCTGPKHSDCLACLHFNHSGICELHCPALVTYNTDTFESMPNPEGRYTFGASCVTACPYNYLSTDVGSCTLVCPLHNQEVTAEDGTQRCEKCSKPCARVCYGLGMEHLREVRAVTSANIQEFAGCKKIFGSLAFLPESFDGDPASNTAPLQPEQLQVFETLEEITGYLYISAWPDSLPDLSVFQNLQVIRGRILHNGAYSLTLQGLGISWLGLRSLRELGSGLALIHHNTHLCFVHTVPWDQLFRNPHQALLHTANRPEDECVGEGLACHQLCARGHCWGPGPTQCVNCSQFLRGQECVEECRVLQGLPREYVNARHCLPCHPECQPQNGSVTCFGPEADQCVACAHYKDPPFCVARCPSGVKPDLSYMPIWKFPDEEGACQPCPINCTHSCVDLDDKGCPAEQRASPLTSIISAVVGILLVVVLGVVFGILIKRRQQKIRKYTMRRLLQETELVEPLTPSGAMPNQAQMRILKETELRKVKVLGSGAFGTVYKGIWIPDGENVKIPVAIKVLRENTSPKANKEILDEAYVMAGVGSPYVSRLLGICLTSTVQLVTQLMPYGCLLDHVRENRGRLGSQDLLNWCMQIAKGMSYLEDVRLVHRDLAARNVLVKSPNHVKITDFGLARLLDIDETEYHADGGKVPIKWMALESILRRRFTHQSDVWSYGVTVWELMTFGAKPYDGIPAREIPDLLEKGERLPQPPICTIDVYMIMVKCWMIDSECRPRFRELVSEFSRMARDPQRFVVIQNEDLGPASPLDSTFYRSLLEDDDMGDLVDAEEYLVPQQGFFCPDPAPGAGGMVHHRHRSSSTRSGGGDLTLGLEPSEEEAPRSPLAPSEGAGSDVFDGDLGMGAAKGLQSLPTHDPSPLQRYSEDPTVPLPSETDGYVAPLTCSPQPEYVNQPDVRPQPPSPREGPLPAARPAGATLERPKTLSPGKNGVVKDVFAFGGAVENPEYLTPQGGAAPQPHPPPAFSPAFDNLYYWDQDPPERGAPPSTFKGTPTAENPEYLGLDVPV
Sequence of EGFR wild type (EGFR WT) (P00533 25-1210): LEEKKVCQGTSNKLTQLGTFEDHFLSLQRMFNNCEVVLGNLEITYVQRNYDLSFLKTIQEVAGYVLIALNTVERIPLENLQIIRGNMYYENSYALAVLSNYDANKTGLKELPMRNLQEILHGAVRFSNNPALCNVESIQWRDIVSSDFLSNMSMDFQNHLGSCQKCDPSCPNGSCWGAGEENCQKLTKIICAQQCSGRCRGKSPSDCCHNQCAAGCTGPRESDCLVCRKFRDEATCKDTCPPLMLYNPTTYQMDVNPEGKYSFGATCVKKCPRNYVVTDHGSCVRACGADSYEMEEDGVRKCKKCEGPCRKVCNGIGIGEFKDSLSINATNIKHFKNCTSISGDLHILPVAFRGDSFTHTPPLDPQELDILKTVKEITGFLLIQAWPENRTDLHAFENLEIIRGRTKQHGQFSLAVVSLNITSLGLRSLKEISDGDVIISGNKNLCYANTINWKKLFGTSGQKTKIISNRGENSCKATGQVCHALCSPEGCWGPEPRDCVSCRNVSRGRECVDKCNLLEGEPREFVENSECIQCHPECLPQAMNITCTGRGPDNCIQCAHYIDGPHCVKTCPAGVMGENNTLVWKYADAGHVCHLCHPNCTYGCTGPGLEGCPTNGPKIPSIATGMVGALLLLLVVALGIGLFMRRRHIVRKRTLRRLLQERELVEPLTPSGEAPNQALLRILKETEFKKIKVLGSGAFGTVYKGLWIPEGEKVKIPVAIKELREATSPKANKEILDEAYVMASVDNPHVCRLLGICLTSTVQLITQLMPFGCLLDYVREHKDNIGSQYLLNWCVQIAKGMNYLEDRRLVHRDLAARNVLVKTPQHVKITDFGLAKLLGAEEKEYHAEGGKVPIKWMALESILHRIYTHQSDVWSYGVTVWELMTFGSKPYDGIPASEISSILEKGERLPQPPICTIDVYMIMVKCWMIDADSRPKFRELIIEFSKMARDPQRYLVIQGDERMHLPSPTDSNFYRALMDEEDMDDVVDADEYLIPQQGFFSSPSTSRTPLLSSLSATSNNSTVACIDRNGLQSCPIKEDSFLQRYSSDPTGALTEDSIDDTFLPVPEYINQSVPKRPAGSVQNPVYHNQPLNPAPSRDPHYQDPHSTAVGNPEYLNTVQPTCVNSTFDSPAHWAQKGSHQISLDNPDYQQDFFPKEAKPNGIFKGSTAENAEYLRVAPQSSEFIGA

| IC50 ([1]; ErbB2 YVMA phosphorylation) [nM] | IC50 ([2]; EGFR enzyme) [nM] | efflux ratio at 2 h, 1 µM [3] | IC50 [4, 7] [nM] | IC50 ([5]; ErbB2 WT enzyme) [nM] | efflux ratio at 2 h, 1 µM [6] | IC50 [1, 8] [nM] | IC50 ([2]; EGFR enzyme assay) [nM] | IC50 [4, 9] [nM] | IC50 ([5]; ErbB2 WT enzyme assay) [nM] | Compound |
| --- | --- | --- | --- | --- | --- | --- | --- | --- | --- | --- |
| 28.9 | 5080 | 1.1 | 2420 | 36.4 | 4.3 |  |  |  |  | C=CC(=O)N1CCN(c2ccc3ncnc(Nc4cc(C)c(Oc5ccn6ncnc6c5)cc4F)c3n2)CC1(C)C [Example 73, 1-(4-(4-((4-([1,2,4]triazolo[1,5-a]pyridin-7-yloxy)-2-fluoro-5-methylphenyl)amino)pyrido[3,2-d]pyrimidin-6-yl)-2,2-dimethylpiperazin-1-yl)prop-2-en-1-one] |
| 23.6 | 1810 | 1 | ≥ 5000 | 111 | 2.1 |  |  |  |  | C=CC(=O)N1C[C@H](c2ccc3ncnc(Nc4ccc(Oc5ccc6c(c5)ncn6C)c(C)c4F)c3n2)CC[C@H]1C [Example 169, 1-((2R,5R)-5-(4-((2-fluoro-3-methyl-4-((1-methyl-1H-benzo[d]imidazol-5-yl)oxy)phenyl)amino)pyrido[3,2-d]pyrimidin-6-yl)-2-methylpiperidin-1-yl)prop-2-en-1-one] |
|  |  | 1.3 |  |  | 2.4 | 23.2 | 5340 | ≥ 5000 | 92.6 | C=CC(=O)N1CCN(c2ccc3ncnc(Nc4cc(C)c(Oc5ccc6c(c5)ncn6C)cc4F)c3n2)C[C@H]1C(C)C [Example 254] |
| 16.6 | 7930 | 1.4 | ≥ 5000 | 65.9 | 1.4 |  |  |  |  | C=CC(=O)N1CCC[C@@H](c2ccc3ncnc(Nc4cc(C)c(Oc5ccc6c(c5)ncn6C)cc4F)c3n2)C1 (racemic) [Example 129, rac-(R)-1-(3-(4-((2-fluoro-5-methyl-4-((1-methyl-1H-benzo[d]imidazol-5-yl)oxy)phenyl)amino)pyrido[3,2-d]pyrimidin-6-yl)piperidin-1-yl)prop-2-en-1-one] |
| 177 | ≥ 10000 | 1.2 | ≥ 5000 | 83.1 | 4.2 |  |  |  |  | Cc1c(Oc2ccn3ncnc3c2)ccc(Nc2ncnc3ccc(N4CCN(C#N)C(C)(C)C4)nc23)c1F [Example 245, 4-(4-((4-([1,2,4]triazolo[1,5-a]pyridin-7-yloxy)-2-fluoro-3-methylphenyl)amino)pyrido[3,2-d]pyrimidin-6-yl)-2,2-dimethylpiperazine-1-carbonitrile] |
| 12.8 | 1680 | 10.2 | 555 | 45.5 |  |  |  |  |  | C=CC(=O)N1CCC(Oc2ccc3ncnc(Nc4ccc(Oc5ccn6ccnc6c5)c(C)c4)c3n2)CC1 [Example 15, 1-(4-((4-((4-(imidazo[1,2-a]pyridin-7-yloxy)-3-methylphenyl)amino)pyrido[3,2-d]pyrimidin-6-yl)oxy)piperidin-1-yl)prop-2-en-1-one] |
| 14 | 2110 | 2.7 | 1220 | 48.3 |  |  |  |  |  | C=CC(=O)N1CCC(Oc2ccc3ncnc(Nc4ccc(Oc5ccn6ncnc6c5)c(C)c4F)c3n2)CC1 [Example 17, 1-(4-((4-((4-([1,2,4]triazolo[1,5-a]pyridin-7-yloxy)-2-fluoro-3-methylphenyl)amino)pyrido[3,2-d]pyrimidin-6-yl)oxy)piperidin-1-yl)prop-2-en-1-one] |

The next lines start with the compound.

| Compound | IC50 ([1]; ErbB2 YVMA phosphorylation) [nM] | IC50 ([2]; EGFR enzyme) [nM] | efflux ratio at 2 h, 1 µM [3] | IC50 [4, 7] [nM] | IC50 ([5]; ErbB2 WT enzyme) [nM] | efflux ratio at 2 h, 1 µM [6] | IC50 [1, 8] [nM] | IC50 ([2]; EGFR enzyme assay) [nM] | IC50 [4, 9] [nM] | IC50 ([5]; ErbB2 WT enzyme assay) [nM] |
| --- | --- | --- | --- | --- | --- | --- | --- | --- | --- | --- |
| C=CC(=O)N1CCN(c2ccc3ncnc(Nc4cc(Cl)c(Oc5ccn6ncnc6c5)cc4F)c3n2)CC1(C)C [Example 326] |  |  | 1.5 |  |  | 2.1 | 19.7 | 2860 | 961 | 18.7 |
| C=CC(=O)N1[C@@H]2CC[C@H]1C[C@@H](c1ccc3ncnc(Nc4ccc(Oc5ccn6ncnc6c5)c(Cl)c4F)c3n1)C2 [Example 214, 1-((1R,3r,5S)-3-(4-((4-([1,2,4]triazolo[1,5-a]pyridin-7-yloxy)-3-chloro-2-fluorophenyl)amino)pyrido[3,2-d]pyrimidin-6-yl)-8-azabicyclo[3.2.1]octan-8-yl)prop-2-en-1-one] | 25 | 279 | 1.4 | ≥ 5000 | 21.6 | 3.8 |  |  |  |  |
| C=CC(=O)N1[C@@H]2CC[C@H]1C(c1ccc3ncnc(Nc4ccc(Oc5ccn6ncnc6c5)c(C)c4)c3n1)C2 (single isomer, unassigned) [Example 232] | 31.9 | 203 | 0.8 | ≥ 5000 | 10.5 | 2.6 |  |  |  |  |
| C=CC(=O)N1C[C@@H]2C[C@H]1C[C@H]2c1ccc2ncnc(Nc3ccc(Oc4ccn5ncnc5c4)c(C)c3F)c2n1 (racemic) [Example 199, rac-1-((1 S,4R,5R)-5-(4-((4-([1,2,4]triazolo[1,5-a]pyridin-7-yloxy)-2-fluoro-3-methylphenyl)amino)pyrido[3,2-d]pyrimidin-6-yl)-2-azabicyclo[2.2.1]heptan-2-yl)prop-2-en-1-one] | 22.3 | 483 | 0.6 | 942 | 17.4 | 3.2 |  |  |  |  |
| C=CC(=O)N1CCN(c2ccc3ncnc(Nc4cc(C)c(Oc5ccn6ncnc6c5)cc4F)c3n2)C[C@@H]1CC [Example 290] |  |  | 1.5 |  |  | 4.8 | 38.5 | 8710 | ≥ 5000 | 53.6 |
| C=CC(=O)N1[C@@H]2CC[C@H]1CC(c1ccc3ncnc(Nc4ccc(Oc5ccn6ncnc6c5)c(C)c4F)c3n1)C2 (stereo partly shown) [Example 369] |  |  | 1.1 |  |  | 4.3 | 22.4 | 2480 | 1360 | 67.1 |
| C=CC(=O)N1CC(c2ccc3ncnc(Nc4ccc(Oc5ccc6c(c5)ncn6C)c(C)c4F)c3n2)CC1C (stereo not shown) [Example 124, 1-(4-(4-((2-fluoro-3-methyl-4-((1-methyl-1H-benzo[d]imidazol-5-yl)oxy)phenyl)amino)pyrido[3,2-d]pyrimidin-6-yl)-2-methylpyrrolidin-1-yl)prop-2-en-1-one] | 11.4 | 3900 | 1.6 | 1940 | 29.9 | 5.2 |  |  |  |  |
| C=CC(=O)N1C[C@H]2C[C@@H]1[C@H](c1ccc3ncnc(Nc4ccc(Oc5ccn6ncnc6c5)c(Cl)c4F)c3n1)C2 [Example 406] |  |  | 0.9 |  |  | 4.3 | 9.3 | 336 | 737 | 8.7 |
| C=CC(=O)N1C[C@H]2C[C@H](c3ccc4ncnc(Nc5cc(C)c(Oc6ccc7c(c6)ncn7C)cc5F)c4n3)C[C@H]2C1 [Example 136, 1-((3aR,5s,6aS)-5-(4-((2-fluoro-5-methyl-4-((1-methyl-1H-benzo[d]imidazol-5-yl)oxy)phenyl)amino)pyrido[3,2-d]pyrimidin-6-yl)hexahydrocyclopenta[c]pyrrol-2(1H)-yl)prop-2-en-1-one] | 28.6 | ≥ 10000 | 1.7 | ≥ 5000 | 39.9 | 1.7 |  |  |  |  |
| C=CC(=O)N1CC[C@H]2CN(c3ccc4ncnc(Nc5ccc(Oc6ccn7ncnc7c6)c(Cl)c5F)c4n3)C[C@H]21 [Example 49, 1-((3aS,6aS)-5-(4-((4-([1,2,4]triazolo[1,5-a]pyridin-7-yloxy)-3-chloro-2-fluorophenyl)amino)pyrido[3,2-d]pyrimidin-6-yl)hexahydropyrrolo[3,4-b]pyrrol-1(2H)-yl)prop-2-en-1-one] | 10.5 | 1170 | 1.5 | 2810 | 18.6 | 3 |  |  |  |  |
| C=CC(=O)N1CCC(N(C)c2ccc3ncnc(Nc4ccc(Oc5ccn6ncnc6c5)c(C)c4F)c3n2)CC1 [Example 32, 1-(4-((4-((4-([1,2,4]triazolo[1,5-a]pyridin-7-yloxy)-2-fluoro-3-methylphenyl)amino)pyrido[3,2-d]pyrimidin-6-yl)(methyl)amino)piperidin-1-yl)prop-2-en-1-one] | 131 | 5530 | 1.9 | ≥ 5000 | 45.8 |  |  |  |  |  |
| C=CC(=O)N1CCC(Oc2ccc3ncnc(Nc4ccc(Oc5cc6nn(C)cc6cn5)c(C)c4)c3n2)CC1 [Example 52, 1-(4-((4-((3-methyl-4-((2-methyl-2H-pyrazolo[4,3-c]pyridin-6-yl)oxy)phenyl)amino)pyrido[3,2-d]pyrimidin-6-yl)oxy)piperidin-1-yl)prop-2-en-1-one] | 34.7 | ≥ 10000 | 34.5 | ≥ 5000 | 395 |  |  |  |  |  |
| C=CC(=O)N1C[C@@H](c2ccc3ncnc(Nc4cc(C)c(Oc5ccc6c(c5)ncn6C)cc4F)c3n2)C[C@@H]1C [Example 190, 1-((2S,4S)-4-(4-((2-fluoro-5-methyl-4-((1-methyl-1H-benzo[d]imidazol-5-yl)oxy)phenyl)amino)pyrido[3,2-d]pyrimidin-6-yl)-2-methylpyrrolidin-1-yl)prop-2-en-1-one] | 16 | 3800 | 3.9 | ≥ 5000 | 41.1 |  |  |  |  |  |
